Experimental data published in US20040009181A1, “Treatment of ophthalmic conditions” (priority 2002, published 2004).
Ends that are not written are not given here.

Columns and labels:
[1] = tested on: Herpes zoster virus (HZV); conditions: Eye 8: 70-74 (1994); cited from earlier work
[2] = tested on: C. albicans (clinical isolate); experiment: C. albicans viability, colony forming units (incl. comparison with fluconazole and ACTH); type: cell-based, Candida albicans; parameters: potency in reducing C. albicans viability / inhibition of C. albicans CFU: dose or concentration left out as unconfirmed; conditions: for potency in reducing C. albicans viability: comparison among peptides, fluconazole and ACTH; for effect on C. albicans colony forming units: 10^−15 to 10^−4M, 2 hours at 37° C., FIG. 7
Procedure: C. albicans (clinical isolate) were obtained from the collection of the Department of Microbiology, Ospedale Maggiore di Milano. C. albicans were maintained on Sabouraud'[…] periodically transferred to Sabouraud's agar plates and incubated for 48 hours at 28° C. To prepare stationary growth phase yeast, a colony was taken from the agar plate and transferred into 30 ml Sabouraud-dextrose broth and incubated for 72 hours at 32° C. Cells were centrifuged at 100×g for 10 minutes and the pellet was washed twice with distilled water. Cells were counted and suspended in Hank's balanced salt solution (“HBSS”) to the desired concentration. Viability, determined by the exclusion of 0.01% methylene blue, remained >98%. […] ID NO. […] Cells were then washed in cold distilled water and diluted with HBSS to a concentration of 100 organisms/ml. One ml aliquots were dispensed on blood agar plates and incubated for 48 hours at 37° C. Organism viability was estimated from the number of colonies formed. […] (SEQ. […] Fluconazole is a well established antifungal agent. The potency of the peptides in reducing C. albicans viability is studied in comparison with fluconazole and ACTH using similar procedures as in Example VII. […] There were at least six replicates for each concentration of peptide. […] Their inhibitory activity was similar to that of fluconazole. The “core” α-MSH sequence, α-MSH [4-10] (SEQ. […] (SEQ. ID NO. 3) and α-MSH [11-13] […] (SEQ. ID NO. 4) (p<0.05).

[3] = Peptides 12, 767-71 (1991); cited from earlier work
[4] = centrally administered; Peptides 9, 1285-8 (1989); cited from earlier work
corneal epithelial cells = conditions: Lens Eye Toxic. Res. 6: 59-85 (1989); cited from earlier work
[5] = tested on: Staphylococcus aureus (ATCC29213); experiment: S. aureus viability, colony forming units; type: cell-based; parameters: dose or concentration left out as unconfirmed; conditions: 2 hours at 37° C.; FIG. 5
Procedure: Staphylococcus aureus (ATCC29213) was obtained from the collection of the Department of Microbiology, Ospedale Maggiore di Milano. […] (SEQ. ID NO 4), α-MSH [11-13] […] S. aureus were then washed in cold distilled water and diluted with HBSS to a concentration of 100 organisms/ml. One ml aliquots were dispensed on blood agar plates and incubated for 24 hours at 37° C. Organism viability was estimated from the number of colony forming units. (SEQ. ID NO. 4) and α-MSH [11-13]

[6] = tested on: S. aureus with recombinant human urokinase; experiment: Urokinase-induced growth-enhancement of S. aureus, colony counts; type: cell-based, Staphylococcus aureus; conditions: 10^−6 M; urokinase 500 U, four hours at 37° C.; FIG. 6; listed as α-MSH [11-13]
Procedure: In this experiment, the influence of α-MSH on urokinase-induced growth-enhancement is determined. Hart, D. A.; Loule, T.; Krulikl, W.; Reno, C., Staphylococcus Aureus Strains Differ in Their in Vitro Responsiveness to Human Urokinase: Evidence that Methicillin-Resistant Strains are Predominantly Nonresponsive to the Growth-Enhancing Effects of Urokinase, Can. J. Microbiol. 42, 1024-31 […]. […] (SEQ. ID NO. 4) or α-MSH [11-13] (SEQ. ID NO. […]) at 10^−6 M. Appropriate dilutions of S. aureus were dispensed on agar plates and colonies counted after 24 hours incubation at 37° C.

[7] = tested on: infectious keratitis of bacterial etiology; experiment: Treatment of bacterial ophthalmic infection, bacterial keratitis, patient; type: in vivo; conditions: ophthalmic aqueous solution 10^−5 M, 3-5 drops four times daily for 7 days
From the text: A patient presents complaining of eye pain when blinking and blurred vision. Upon examination the cornea appears subtly less transparent than normal cornea and may have ulcers on its surface. The diagnosis is infectious keratitis of bacterial etiology, which is confirmed by laboratory findings.

[8] = tested on: HIV-1 infected promonocytic U1 cells; experiment: HIV-p24 and reverse transcriptase release by U1 cells stimulated by IL-6, IL-10, PMA or crowding; type: cell-based; conditions: 10^−5 M; U1 cells induced by IL-6, IL-10, PMA, and in crowding conditions; FIG. 3
Procedure: In all experiments, each condition was tested in triplicate.

Keratomycosis = experiment: Treatment of fungal ophthalmic infection, Keratomycosis, patient; type: in vivo; conditions: ophthalmic aqueous solution 10^−5 M, 3-5 drops four times daily for 7 days
From the text: Upon examination, a patient is diagnosed as having Keratomycosis.

[9] = tested on: Herpes simplex virus blepharitis; experiment: Treatment of viral ophthalmic infection, HSV blepharitis, patient; type: in vivo; conditions: ophthalmic aqueous solution 10^−5 M, 3-5 drops four times daily for 7 days
Procedure: A patient is diagnosed as having Herpes simplex virus blepharitis. […] The patient is treated with 3-5 drops of the ophthalmic aqueous solution onto the surface of eyes four times daily for 7 days.

[10] = tested on: HIV-1 RNA in PMA-stimulated U1 cells; experiment: HIV transcription, Northern blot analysis of HIV-RNA in PMA-stimulated U1 cells; type: cell-based; conditions: 10^−5M; PMA (1 ng/mL) stimulated U1 cells, 24 h; FIG. 4
From the text: Total RNA was extracted by the guanidine thiocyanate phenol method using an RNA isolation kit (Tripure, Boehringer Mannheim, Indianapolis, Ind.), following the manufacturer's instructions. Ten μg of total RNA were separated by 0.8% agarose/formaldehyde gel electrophoresis and transferred onto nylon membrane. The filters were baked and hybridized for 18 hr with α^32 P-labeled HIV-full length probe (kind gift of L. Turchetto and E. Vicenzi, S. Raffaele Hospital, Milan, Italy). The radiolabeling reaction was performed using a DNA labeling kit (Ready-to-go, Pharmacia Biotech, San Francisco, Calif.). Filters were washed and exposed to X-ray film for 5 days. The labeled probe was removed by washing at 80° C. in 0.1×SSC containing 0.1% sodium dodecyl sulphate and then rehybridized with α^32 P-labeled glyceraldehyde-3-phosphate dehydrogenase (GAPDH) cDNA probe. Densitometric analysis was performed using ImageMaster™ VDS 3.0 software (Pharmacia Biotech) and results were expressed as density units.

[11] = tested on: HIV-1 infected promonocytic U1 cell line; experiment: HIV-p24 release by TNF-α stimulated U1 cells (ELISA); type: cell-based; conditions: 10^−13 to 10^−4 M, FIG. 2
From the text: Before use, cells were washed three times with HBSS (Gibco) to remove extracellular virus.

[12] = Peptides 6, 273-5 (1985); cited from earlier work

Nc1nc2c(ncn2COCCO)c(=O)[nH]1 [Acyclovir]
preventative effect on ocular complications of HZV [1]: little or no preventative effect

ACTH (18-39): ACTH fragment (18-39), also called CLIP [reference compound]
potency in reducing C. albicans viability ([2]; FIG. 8): did not reduce

[D-K^11] α-MSH 11-13
anti-inflammatory activity relative to L-form tripeptide α-MSH 11-13 [3]: same general potency as the L-form

ACTH (1-39): Adrenocorticotropic Hormone (1-39) (SYSMEHFRWGKPVGKKRRPVKVYPNGAEDESAEAFPLEF; Corticotropin; UniProt P01189 138-176, looked up) [reference compound]
potency in reducing C. albicans viability ([2]; FIG. 8): did not reduce

MEHFRWG (Ac-MEHFRWG-NH2) [α-MSH [4-10]]
inhibition of C. albicans CFU ([2]; FIG. 8): approximately 50%

8-13 sequence: α-MSH 8-13 sequence (RWGKPV; ends and bridges not checked; UniProt P01189 145-150, looked up, fragment)
antipyretic potency relative to α-MSH (11-13) sequence [4]: greater than that of the 11-13 sequence

O=c1[nH]c(=O)n([C@H]2C[C@H](O)[C@@H](CO)O2)cc1I [Idoxurine]
toxicity to corneal epithelial cells (corneal epithelial cells): toxic to corneal epithelial cells

10-13 sequence: α-MSH (11-13) with glycine added to form the 10-13 sequence (GKPV; ends and bridges not checked; UniProt P01189 147-150, looked up, fragment)
antipyretic potency relative to α-MSH (11-13) sequence [4]: slightly decreased potency

Val-Pro-Lys-AcCys-s-s-CysAc-Lys-Pro-Val [KPV dimer]
effect on S. aureus colony formation (CFU) [5]: inhibited
effect on C. albicans colony forming units [2]: inhibited

KPV
effect on urokinase-enhanced S. aureus colony formation [6]: significantly inhibited the enhancing effect of urokinase
outcome of bacterial keratitis after treatment [7]: either shows marked improvement or fully recovers
effect on RT (reverse transcriptase) release [8]: significantly inhibited
effect on p24 release [8]: significantly inhibited
effect on S. aureus colony formation (CFU) [5]: inhibited
effect on C. albicans colony forming units [2]: greatly reduced
potency in reducing C. albicans viability ([2]; FIG. 8): most effective
outcome of Keratomycosis after treatment (Keratomycosis): either shows marked improvement or fully recovers
HSV blepharitis symptom after treatment [9]: substantially reduced
reduction of spliced HIV-1 RNA [10]: approximately 50%
reduction of unspliced HIV-1 RNA [10]: approximately 50%
effect on p24 release [11]: significantly inhibited

[Nle^4 DPhe^7]-α-MSH
potency in reducing fever relative to parent peptide α-MSH [12]: approximately ten times more potent than the parent peptide

9-13 sequence: α-MSH 9-13 sequence (WGKPV; ends and bridges not checked; UniProt P01189 146-150, looked up, fragment)
antipyretic potency relative to α-MSH (11-13) sequence [4]: almost devoid of activity

HFRWGKPV (Ac-HFRWGKPV-NH2) [α-MSH [6-13], α-MSH from residue 6 through residue 13]
potency in reducing C. albicans viability ([2]; FIG. 8): most effective
